How the values were obtained:
DP 7220 RR = test: Effect of glyphosate on soybean yield, male sterility assessed from yield (Example 4); type: in vivo
Source text: (§1) The glyphosate-tolerant soybean varieties DP 7220 RR, DP 6299 RR and DP 5414 RR were planted in replicated four row plots 18 feet in length, at planting and during growing season, end trimmed to 14.5 feet just prior to harvest to remove end effects in yield. Glyphosate (RoundUp® Ultra Max, Monsanto Co.) was applied starting 14 days post planting, with 5 applications at approximately 10 day intervals thereafter. The sprays consisted of a single 2% solution of the RoundUp® Ultra Max commercial glyphosate product, which is a 50% solution of glyphosate. This is equivalent to 16.25 ml/l or 2.17 oz/gal. This solution was used for all treatments, and was applied to runoff. Four rates of application were used: 0 ounces/acre (oz/acre) (control), 13.5 oz/acre (equivalent to the 16 oz/acre of the 41% formulation used in Examples 1-3), 26 oz/acre (equivalent to the 32 oz/acre used for Examples 1-3) and 52 oz/acre (equivalent to the 64 oz/acre used for Examples 1-3).
(§2) The two middle rows of each plot were harvested for yield, calculated in bushels/acre (bu/acre) based on this land area. Statistical significance was determined using a standard single-tailed T-test. Male sterility was assessed based on the yield, because soybean is a […] flower (the flowers never open until after fertilization), and thus is almost completely self-pollinated. A statistically significant reduction in the yield would therefore correlate with a decreased rate of fertilization. Pollen production was not assessed in this experiment, but based on the observations made in cotton (Examples 1-3), it is reasonable to conclude that the decrease in fertilization rate in soybeans was due to a decrease in viable pollen production.

DP 6299 RR = test: as above; type: in vivo
Source text: as §1, §2

DP 5414 RR = test: as above; type: in vivo
Source text: as §1, §2

Paymaster 145 RR = test: Crossing block with hand pollination, boll and seed set (Example 2); type: in vivo, cotton; details: glyphosate applied as in Example 1 (about 64 oz/acre); end of season
Source text: A small isolated crossing block was planted with variety Paymaster 145 RR. Glyphosate was applied as indicated in the previous Example. The intention was to maintain male sterility and to cross pollinate (manually) with pollen from another Paymaster variety to produce actual F1 hybrid seed.

[1] = tested on: PM 2200 RR and PM 2326 RR; test: Spray rate test, fertility scores and seed set after hand pollination (Example 3); type: in vivo, cotton
Procedure: A further test was conducted using the varieties PM 2200 RR and PM 2326 RR, in which 4 levels of glyphosate spray rates were applied at 14 day intervals, beginning at 31 days post planting. The rates used were: 0, 16, 24 and 32 ounces/acre of glyphosate. Fertility scores were taken at roughly 2 day intervals during the season to follow male sterility development. At the same time hand pollination was done on 10 flowers in each treatment (all 3 replicates), also at 2 day intervals for a total of “10 crossing days”. This was to determine the amount of seed set under the various spray regimes and thus infer the degree of female sterility, if any, being induced by the glyphosate applications.

[2] = tested on: glyphosate-tolerant variety (RR1445) of Coker 312; test: Glyphosate-induced male sterility in cotton, field plots scored for fertility (Example 1); type: in vivo
Source text: A test was designed to determine whether glyphosate-induced male sterility in cotton could be reliably maintained throughout the blooming period.
The plant material used was a glyphosate-tolerant variety (RR1445) of Coker 312 obtained from Monsanto Co. (St. Louis, Mo.). Seed was planted in 25 foot long, single row plots, with a 38 inch row spacing. The test was replicated four times with treatments applied as follows:
Treatment 1: Single spray at 30 days post planting (“30 DPP”);
Treatment 2: Multiple sprays beginning at 30 DPP and repeating every 10 days (“30 DPP+10 D”)
Treatment 3: Multiple sprays beginning at 30 DPP and repeating every 20 days (“30 DPP+20 D”)
Treatment 4: Unsprayed control.
The sprays consisted of a single 2% solution of Roundup® brand glyphosate (41% formulation), which was equivalent to 20 ml/l, or 22/3 oz/gal. This solution was used in all spray treatments, and was applied to runoff. […] At the onset of bloom (mid-July) and through mid September, each plot was scored for fertility approximately every 5 days as follows:
0=Complete sterility; no pollen present upon rubbing anthers between fingers;
1=Practically no pollen present upon rubbing anthers, no self pollination possible because anthers never shed pollen, male-sterile for all practical purposes;
2=Very little pollen upon rubbing anthers, no natural pollen shed, no self pollination possible, male sterile for all practical purposes;
3=Some pollen present when anthers rubbed, a minimal amount of natural pollen shed on lower anthers, a very small amount of self pollination possible with insect activity;
4=Anthers shed pollen in sufficient amounts at all anther levels to self pollinate;
5=Anthers shed pollen in normal amounts from all anthers.

O=C(O)CNCP(=O)(O)O [glyphosate]
Male sterility (assessed from yield) (DP 7220 RR; 13.5 to 52 oz/acre): complete male-sterility was not achieved
Average Difference from Control (DP 7220 RR; application rate 13.5 oz./acre): 4.05 oz./acre
Yield (DP 7220 RR; application rate 13.5 oz./acre): 35.95 bu/acre
Average Difference from Control (DP 7220 RR; application rate 26 oz./acre): 8.27 oz./acre
Yield (DP 7220 RR; application rate 26 oz./acre): 31.73 bu/acre
Average Difference from Control (DP 7220 RR; application rate 52 oz./acre): 11.55 oz./acre
Yield (DP 7220 RR; application rate 52 oz./acre): 28.45 bu/acre
Male sterility (assessed from yield) (DP 6299 RR; 13.5 to 52 oz/acre): complete male-sterility was not achieved
Average Difference from Control (DP 6299 RR; application rate 13.5 oz./acre): 1.23 oz./acre
Yield (DP 6299 RR; application rate 13.5 oz./acre): 36.45 bu/acre
Average Difference from Control (DP 6299 RR; application rate 26 oz./acre): 9.65 oz./acre
Yield (DP 6299 RR; application rate 26 oz./acre): 28.03 bu/acre
Average Difference from Control (DP 6299 RR; application rate 52 oz./acre): 10.18 oz./acre
Yield (DP 6299 RR; application rate 52 oz./acre): 27.50 bu/acre
Male sterility (assessed from yield) (DP 5414 RR; 13.5 to 52 oz/acre): complete male-sterility was not achieved
Average Difference from Control (DP 5414 RR; application rate 13.5 oz./acre): 2.05 oz./acre
Yield (DP 5414 RR; application rate 13.5 oz./acre): 32.53 bu/acre
Average Difference from Control (DP 5414 RR; application rate 26 oz./acre): 8.30 oz./acre
Yield (DP 5414 RR; application rate 26 oz./acre): 26.28 bu/acre
Average Difference from Control (DP 5414 RR; application rate 52 oz./acre): 8.65 oz./acre
Yield (DP 5414 RR; application rate 52 oz./acre): 25.93 bu/acre
Boll set of hand pollinated flowers (female sterility) (Paymaster 145 RR): practically all hand pollinated flowers had not set viable bolls
Female sterility ([1]; 24 oz/acre rate at roughly 10 day intervals (best effect)): minimal or no female sterility
Male sterility ([1]; all rates used: 16, 24 and 32 ounces/acre, 14 day intervals from 31 days post planting): produced male sterility
Boll and hybrid seed set after hand pollination ([1]; all the spray rates tested (16, 24, 32 oz/acre)): Full, mature bolls bearing hybrid seed were produced
Level of male sterility induced ([1]; both varieties PM 2200 RR and PM 2326 RR, small varietal difference): adequate for hybrid production
Fertility score ([2]; 30 DPP (single spray at 30 days post planting), 2% Roundup about 64 oz/acre, 58 days post planting, score 0 complete sterility to 5 normal pollen, practical sterility 2.75 or below): 1.00
Fertility score ([2]; 30 DPP + 10 D (sprays from 30 DPP every 10 days), 2% Roundup about 64 oz/acre, 58 days post planting): 1.00
Fertility score ([2]; 30 DPP + 10 D, 62 days post planting): 1.00
Fertility score ([2]; 30 DPP + 10 D, 66 days post planting): 1.00
Fertility score ([2]; 30 DPP + 10 D, 70 days post planting): 1.00
Fertility score ([2]; 30 DPP + 10 D, 75 days post planting): 1.00
Fertility score ([2]; 30 DPP + 10 D, 80 days post planting): 1.25
Fertility score ([2]; 30 DPP + 10 D, 85 days post planting): 1.25
Fertility score ([2]; 30 DPP + 10 D, 90 days post planting): 1.25
Fertility score ([2]; 30 DPP + 10 D, 104 days post planting): 1.25
Fertility score ([2]; 30 DPP + 20 D (sprays from 30 DPP every 20 days), 2% Roundup about 64 oz/acre, 58 days post planting): 1.00
Fertility score ([2]; 30 DPP + 20 D, 62 days post planting): 1.75
Fertility score ([2]; 30 DPP + 20 D, 66 days post planting): 2.5
Fertility score ([2]; 30 DPP + 20 D, 70 days post planting): 2.75
Fertility score ([2]; 30 DPP + 20 D, 75 days post planting): 2.5
Fertility score ([2]; 30 DPP + 20 D, 80 days post planting): 1.75
Fertility score ([2]; 30 DPP + 20 D, 85 days post planting): 1.75
Fertility score ([2]; 30 DPP + 20 D, 90 days post planting): 1.50
Fertility score ([2]; 30 DPP + 20 D, 104 days post planting): 1.50
Fertility score ([2]; 30 DPP single spray, 62 days post planting): 3.00
Fertility score ([2]; 30 DPP single spray, 66 days post planting): 3.75
Fertility score ([2]; 30 DPP single spray, 70 days post planting): 4.00
Fertility score ([2]; 30 DPP single spray, 75 days post planting): 4.25
Fertility score ([2]; 30 DPP single spray, 80 days post planting): 4.50
Fertility score ([2]; 30 DPP single spray, 85 days post planting): 5.00
Fertility score ([2]; 30 DPP single spray, 90 days post planting): 5.00
Fertility score ([2]; 30 DPP single spray, 104 days post planting): 5.00
Adverse effects of the multiple sprays (other than male sterility) ([2]; throughout the season, about 64 oz/acre): No adverse effects
Induction of male sterility ([2]; treatment 2 (30 DPP+10 D), about 64 oz/acre): adequate to induce sterility
Induction of male sterility ([2]; treatment 3 (30 DPP+20 D), about 64 oz/acre): adequate to induce sterility

From patent US20020111272A1, “Glyphosate-induced male sterility in dicots” (priority 2000, published 2002)
